Results taken from BindingDB's records for doi:10.1021/jm0600390 (Mcgill University Health Center/Royal Victoria Hospital, 2006).

Assay: Inhibition of serum-stimulated proliferation of mouse ERBB2 transfected NIH3T3 cell line after 24 hrs

Point of comparison: `CN(C(=O)N(CCCl)N=O)c1ccc2ncnc(Nc3cccc(Cl)c3)c2c1` [1-(2-chloroethyl)-1-nitroso-3-methyl-3-{[4-(3-chloro-phenyl)amino]quinazolin-6-yl}urea], IC50 680 nM. Against it:
- Nc1ccc2ncnc(Nc3cccc(Br)c3)c2c1 — within 1.5-fold, 670 nM
- Nc1ccc2ncnc(Nc3cccc(Cl)c3)c2c1 — 4.8-fold higher, 3290 nM
- O=NN(CCCl)C(=O)Nc1ccc2ncnc(Nc3cccc(Cl)c3)c2c1 [1-(2-Chloroethyl)-1-nitroso-3-{[4-(3-chlorophenyl)amino]quinazolin-6-yl}urea] — 7.9-fold higher, 5400 nM
- Cc1cccc(Nc2ncnc3ccc(NC(=O)N(CCCl)N=O)cc23)c1 [1-(2-Chloroethyl)-1-nitroso-3-{[4-(3-methylphenyl)amino]quinazolin-6-yl}urea] — 18-fold higher, 12200 nM
- CN(C(=O)N(CCCl)N=O)c1ccc2ncnc(Nc3cccc(Br)c3)c2c1 [1-(2-chloroethyl)-1-nitroso-3-methyl-3-{[4-(3-bromophenyl)amino]quinazolin-6-yl}urea] — 4.5-fold higher, 3060 nM
- Cc1cccc(Nc2ncnc3ccc(N(C)C(=O)N(CCCl)N=O)cc23)c1 [1-(2-chloroethyl)-1-nitroso-3-methyl-3-{[4-(3-methylphenyl)amino]quinazolin-6-yl}urea] — 10-fold higher, 6880 nM
- O=NN(CCCl)C(=O)Nc1ccc2ncnc(Nc3cccc(Br)c3)c2c1 [1-(2-chloroethyl)-1-nitroso-3-{[4-(3-bromophenyl)amino]quinazolin-6-yl}urea] — 1.7-fold higher, 1150 nM
- O=C(NCCCl)Nc1ccc2ncnc(Nc3cccc(Br)c3)c2c1 [1-(2-chloroethyl)-3-{[4-(3-bromophenyl)amino]quinazolin-6-yl}urea] — 2.6-fold higher, 1770 nM
- O=C(NCCCl)Nc1ccc2ncnc(Nc3cccc(Cl)c3)c2c1 [1-(2-chloroethyl)-3-{[4-(3-chlorophenyl)amino]quinazolin-6-yl}urea] — 2-fold higher, 1350 nM
- Cc1cccc(Nc2ncnc3ccc(NC(=O)NCCCl)cc23)c1 [1-(2-chloroethyl)-3-{[4-(3-methylphenyl)amino]quinazolin-6-yl}urea] — 3.1-fold higher, 2100 nM
- CNc1ccc2ncnc(Nc3cccc(Br)c3)c2c1 [4-N-(3-bromophenyl)-6-N-methylquinazoline-4,6-diamine] — 4-fold lower, 170 nM
- CNc1ccc2ncnc(Nc3cccc(Cl)c3)c2c1 [4-[(3-chlorophenyl)amino]-6-(methylamino)quinazoline] — within 1.5-fold, 890 nM
- CNc1ccc2ncnc(Nc3cccc(C)c3)c2c1 [4-[(3-methylphenyl)amino]-6-(methylamino)quinazoline] — 3-fold higher, 2070 nM
- Cc1cccc(Nc2ncnc3ccc(N)cc23)c1 [N4-(3-methylphenyl)-4,6-quinazolinediamine] — 9.4-fold higher, 6390 nM
